Assays:
[1] = tested on: DSS mouse model of ulcerative colitis; assay: DSS mouse model of ulcerative colitis: Disease Activity Index, plasma and colon cytokines, colon histopathology; format: in vivo, mice; details: for amount of crypt damage (colon histopathology) / colon IL-15 level increased by DSS / colon KC level increased by DSS / colon RANTES level increased by DSS / degree of inflammatory infiltrate (colon histopathology) / layer to which the infiltration extended (extent of infiltration, colon histopathology): colon collected day 7; for improvement (reduction) in the Disease Activity Index (DAI): mice given 2.5% DSS in drinking water for 6 days, NTX 1170 100 mg/kg QD PO, infliximab 5 mg/kg QD IP, tofacitinib 5 mg/kg BID PO
Method: (§1) Body weights, stool consistency and the presence of blood in the stool were measured over the 6 days and comprised the Disease Activity Index (DAI). On day 7 the study was terminated, and the colon and plasma were collected for cytokine measurements, histology evaluation and for pharmacokinetic (PK) analysis.

[2] = Pharmacokinetic (PK) analysis of terminal plasma and colon samples in DSS mice; format: in vivo; details: 100 mg/kg QD PO
Method: as §1

[3] = plasma collected day 7, 2.5% DSS 6 days

Row | Compound | amount of crypt damage (colon histopathology) ([1]; 2.5% DSS 6 days) | colon IL-15 level increased by DSS ([1]; 2.5% DSS 6 days) | colon KC level increased by DSS ([1]; 2.5% DSS 6 days) | colon RANTES level increased by DSS ([1]; 2.5% DSS 6 days) | degree of inflammatory infiltrate (colon histopathology) ([1]; 2.5% DSS 6 days) | layer to which the infiltration extended (extent of infiltration, colon histopathology) ([1]; 2.5% DSS 6 days) | plasma G-CSF level upregulated by DSS [1, 3] | plasma Mip-1β level upregulated by DSS [1, 3] | plasma TNF-α level upregulated by DSS [1, 3] | improvement (reduction) in the Disease Activity Index (DAI) [1] | plasma IP-10 level upregulated by DSS [1, 3] | plasma MIG level upregulated by DSS [1, 3] | Kp ([2]; mouse, colon and plasma, terminal samples, read-out: colon/plasma ratio) | level of compound in the colon ([2]; terminal colon sample) | level of compound in the plasma ([2]; terminal plasma sample)
1 | infliximab | no significant effect | neither tofacitinib nor infliximab significantly reduced | neither tofacitinib nor infliximab significantly reduced | neither tofacitinib nor infliximab significantly reduced | no significant effect | no significant effect | reduced | reduced | reduced | – | – | – | – | – | –
2 | Cc1cccc(C)c1NC(=O)C[N+]1(Cc2ccccc2)CCCCC1.[Br-] [NTX-1170] | significantly reduced | significantly reduced | significantly reduced | significantly reduced | significantly reduced | significantly reduced | significantly reduced | significantly reduced | significantly reduced | 60% | significantly reduced | significantly reduced | > 3500 | high levels | very low levels
3 | C[C@@H]1CCN(C(=O)CC#N)C[C@@H]1N(C)c1ncnc2[nH]ccc12 [tofacitinib] | – | neither tofacitinib nor infliximab significantly reduced | neither tofacitinib nor infliximab significantly reduced | neither tofacitinib nor infliximab significantly reduced | – | reduced | significantly reduced | significantly reduced | significantly reduced | 38% | – | significantly reduced | – | – | –

— patent US20250120960A1, “Compositions and Methods for Treatment of Inflammatory Bowel Disease” (Nocion Therapeutics, Inc., priority 2022, published 2025)
